{"source": "patent US20250367153A1", "about": "“COMPOSITION AND APPLICATION THEREOF” (priority 2024, published 2025)", "origin": "cited, not measured here", "key": {"[1]": {"system": "rat, mouse, and guinea pig"}}}
{"compound": "O=CC=Cc1ccccc1", "note": "[cinnamaldehyde]", "values": [{"measurement": "LD50", "setting": "[1]", "value": 3400, "unit": "mg/kg"}]}
{"compound": "NCC(=O)O", "note": "[glycine]", "values": [{"measurement": "NOAEL (no-observed-adverse-effect level)", "setting": "rat", "value": "at least 2000 mg/kg/day"}]}
{"compound": "phosphatidylserine", "values": [{"measurement": "acute oral LD50", "setting": "rats and dogs; acute oral", "value": "greater than 5 g/kg bw"}, {"measurement": "NOAEL", "setting": "rats and dogs; rats and dogs", "value": "1,000 mg/kg bw/day"}]}
{"compound": "OCC=Cc1ccccc1", "note": "[cinnamyl alcohol]", "values": [{"measurement": "LD50", "setting": "[1]", "value": 2675, "unit": "mg/kg"}]}
